# From PMC5218480 (PLoS ONE, 2017)
# System: MV-4-11 cells
# Assay: Gene expression microarray analysis (Affymetrix PrimeView) and GSEA
# Assay type: cell-based, human
# Parameters: RFU PODN (11730768_x_at) / Fold change /veh PODN (11730768_x_at) / RFU LINC00158 (11744669_a_at) / Fold change /veh LINC00158 (11744669_a_at) / RFU DUSP10 (11751237_a_at) / Fold change /veh DUSP10 (11751237_a_at) / RFU ID3 (11757404_x_at) / Fold change /veh ID3 (11757404_x_at) / RFU PLEKHG5 (11737974_s_at) / Fold change /veh PLEKHG5 (11737974_s_at) / RFU LRRC4B (11730491_at) / Fold change /veh LRRC4B (11730491_at) / RFU GIMAP4 (11747438_a_at) / Fold change /veh GIMAP4 (11747438_a_at) / RFU KRT8 (11758183_x_at) / Fold change /veh KRT8 (11758183_x_at) / RFU CNN1 (11734310_a_at) / Fold change /veh CNN1 (11734310_a_at) / RFU VPS37D (11726825_at) / Fold change /veh VPS37D (11726825_at) / RFU C10orf10 (11716522_x_at) / Fold change /veh C10orf10 (11716522_x_at) / RFU KIR2DL2 /// KIR2DL4 /// KIR2DL5A /// KIR2DL5B /// KIR2DS1 /// KIR2DS2 /// KIR2DS3 /// KIR2DS4 /// KIR3DL3 /// KIR3DL3 /// KIR3DS1 (11738374_at) / Fold change /veh KIR2DL2 /// KIR2DL4 /// KIR2DL5A /// KIR2DL5B /// KIR2DS1 /// KIR2DS2 /// KIR2DS3 /// KIR2DS4 /// KIR3DL3 /// KIR3DL3 /// KIR3DS1 (11738374_at) / RFU C1QL1 (11718748_at) / Fold change /veh C1QL1 (11718748_at) / RFU TMPRSS4 (11747572_a_at) / Fold change /veh TMPRSS4 (11747572_a_at) / RFU HAMP (11756126_x_at) / Fold change /veh HAMP (11756126_x_at) / RFU RNFT2 (11725882_a_at) / Fold change /veh RNFT2 (11725882_a_at) / RFU NR4A2 (11747474_a_at) / Fold change /veh NR4A2 (11747474_a_at) / RFU ABCC12 (11746883_a_at) / Fold change /veh ABCC12 (11746883_a_at) / RFU TMEM136 (11760407_x_at) / Fold change /veh TMEM136 (11760407_x_at) / RFU CLDN22 /// WWC2 (11732394_at) / Fold change /veh CLDN22 /// WWC2 (11732394_at) / RFU HLA-DPB1 (11760878_x_at) / Fold change /veh HLA-DPB1 (11760878_x_at) / RFU SPINT1 (11716480_a_at) / Fold change /veh SPINT1 (11716480_a_at) / RFU GAP43 (11754022_s_at) / Fold change /veh GAP43 (11754022_s_at) / RFU A4GNT (11735810_at) / Fold change /veh A4GNT (11735810_at) / RFU PRB3 (11715151_x_at) / Fold change /veh PRB3 (11715151_x_at) / RFU TUBB4B (11761932_at) / Fold change /veh TUBB4B (11761932_at) / RFU CAPN14 (11732068_a_at) / Fold change /veh CAPN14 (11732068_a_at) / RFU TMCC2 (11721928_a_at) / Fold change /veh TMCC2 (11721928_a_at) / RFU IRGQ (11745062_a_at) / Fold change /veh IRGQ (11745062_a_at) / RFU FAM174B (11720279_a_at) / Fold change /veh FAM174B (11720279_a_at) / RFU TMPRSS4 (11748680_a_at) / Fold change /veh TMPRSS4 (11748680_a_at) / RFU FAM212B (11763350_a_at) / Fold change /veh FAM212B (11763350_a_at) / RFU PLEKHG5 (11743358_a_at) / Fold change /veh PLEKHG5 (11743358_a_at) / RFU ZSCAN30 (11745921_a_at) / Fold change /veh ZSCAN30 (11745921_a_at) / RFU CMKLR1 (11741424_a_at) / Fold change /veh CMKLR1 (11741424_a_at) / RFU LOC101060620 /// MAPK8IP1 (11723275_at) / Fold change /veh LOC101060620 /// MAPK8IP1 (11723275_at) / RFU SPTSSB (11747773_x_at) / Fold change /veh SPTSSB (11747773_x_at) / RFU PRSS12 (11739890_at) / Fold change /veh PRSS12 (11739890_at) / RFU BIN1 (11741810_x_at) / Fold change /veh BIN1 (11741810_x_at) / RFU WNT11 (11732464_a_at) / Fold change /veh WNT11 (11732464_a_at) / RFU C10orf10 (11716521_a_at) / Fold change /veh C10orf10 (11716521_a_at) / RFU C5orf56 (11738089_at) / Fold change /veh C5orf56 (11738089_at) / RFU CYB561 (11721691_x_at) / Fold change /veh CYB561 (11721691_x_at) / RFU ANKRD19P (11752326_a_at) / Fold change /veh ANKRD19P (11752326_a_at) / RFU OR2T12 /// OR2T33 /// OR2T8 (11738714_s_at) / Fold change /veh OR2T12 /// OR2T33 /// OR2T8 (11738714_s_at) / RFU VCAN (11748164_a_at) / Fold change /veh VCAN (11748164_a_at) / RFU JSRP1 (11732532_at) / Fold change /veh JSRP1 (11732532_at) / RFU KRTAP10-11 (11738290_x_at) / Fold change /veh KRTAP10-11 (11738290_x_at) / RFU MYO3A (11730013_a_at) / Fold change /veh MYO3A (11730013_a_at) / RFU EBF3 (11725865_a_at) / Fold change /veh EBF3 (11725865_a_at) / RFU CAMK2N1 (11719241_x_at) / Fold change /veh CAMK2N1 (11719241_x_at) / RFU C5orf56 (11738088_a_at) / Fold change /veh C5orf56 (11738088_a_at) / RFU OLFML3 (11715873_a_at) / Fold change /veh OLFML3 (11715873_a_at) / RFU LOC100653217 /// NTM (11731650_a_at) / Fold change /veh LOC100653217 /// NTM (11731650_a_at) / RFU MAPK11 (11762145_a_at) / Fold change /veh MAPK11 (11762145_a_at) / RFU FIZ1 (11724087_x_at) / Fold change /veh FIZ1 (11724087_x_at) / RFU OASL (11726364_x_at) / Fold change /veh OASL (11726364_x_at) / RFU SOX15 (11748057_x_at) / Fold change /veh SOX15 (11748057_x_at) / RFU CD79A (11719716_a_at) / Fold change /veh CD79A (11719716_a_at) / RFU HIST1H1D (11736915_at) / Fold change /veh HIST1H1D (11736915_at) / RFU CASKIN2 (11723855_a_at) / Fold change /veh CASKIN2 (11723855_a_at) / RFU LOC730098 (11760151_x_at) / Fold change /veh LOC730098 (11760151_x_at) / RFU OR4N2 (11742367_at) / Fold change /veh OR4N2 (11742367_at) / RFU PRRT2 (11749266_a_at) / Fold change /veh PRRT2 (11749266_a_at) / RFU SNX32 (11753110_a_at) / Fold change /veh SNX32 (11753110_a_at) / RFU CDHR5 (11726645_a_at) / Fold change /veh CDHR5 (11726645_a_at) / RFU RCAN1 (11760418_a_at) / Fold change /veh RCAN1 (11760418_a_at) / RFU FAM167A (11723789_a_at) / Fold change /veh FAM167A (11723789_a_at) / RFU FAM26E (11764081_at) / Fold change /veh FAM26E (11764081_at) / RFU ISYNA1 (11749810_s_at) / Fold change /veh ISYNA1 (11749810_s_at) / RFU ACY1 (11761880_at) / Fold change /veh ACY1 (11761880_at) / RFU 11764098_at / Fold change /veh 11764098_at / RFU SAMD14 (11745864_x_at) / Fold change /veh SAMD14 (11745864_x_at) / RFU NPB (11741838_a_at) / Fold change /veh NPB (11741838_a_at) / RFU TMPRSS6 (11731388_a_at) / Fold change /veh TMPRSS6 (11731388_a_at) / RFU KRTAP10-2 (11738614_at) / Fold change /veh KRTAP10-2 (11738614_at) / RFU ARHGAP8 /// PRR5-ARHGAP8 (11727945_x_at) / Fold change /veh ARHGAP8 /// PRR5-ARHGAP8 (11727945_x_at) / RFU KRTAP5-7 /// NADSYN1 (11734609_at) / Fold change /veh KRTAP5-7 /// NADSYN1 (11734609_at) / RFU RASL12 (11751679_a_at) / Fold change /veh RASL12 (11751679_a_at) / RFU CDKN2B (11736163_a_at) / Fold change /veh CDKN2B (11736163_a_at) / RFU PRF1 (11729649_at) / Fold change /veh PRF1 (11729649_at) / RFU, ZNF638 /// ZNF638-IT1 / Fold change vs veh, ZNF638 /// ZNF638-IT1 / RFU, PANK3 / Fold change vs veh, PANK3 / RFU, SH3YL1 / Fold change vs veh, SH3YL1 / RFU, ZEB2 / Fold change vs veh, ZEB2 / RFU, NRIP1 / Fold change vs veh, NRIP1 / RFU, PTTG1IP / Fold change vs veh, PTTG1IP / RFU, CAPN2 / Fold change vs veh, CAPN2 / RFU, MED14 / Fold change vs veh, MED14 / RFU, SNORA58 / Fold change vs veh, SNORA58 / RFU, C1orf63 / Fold change vs veh, C1orf63 / RFU, LRRFIP1 / Fold change vs veh, LRRFIP1 / RFU, NDUFAF7 / Fold change vs veh, NDUFAF7 / RFU, SLC12A2 / Fold change vs veh, SLC12A2 / RFU, IBTK / Fold change vs veh, IBTK / RFU, ESF1 / Fold change vs veh, ESF1 / Fold change vs veh, TMEM50B / RFU, TAOK1 / Fold change vs veh, TAOK1 / RFU, ACBD3 / Fold change vs veh, ACBD3 / RFU, TMA16 / Fold change vs veh, TMA16 / RFU, RWDD3 / Fold change vs veh, RWDD3 / RFU, BCAT1 / Fold change vs veh, BCAT1 / RFU, EDEM3 / Fold change vs veh, EDEM3 / RFU, TMEM33 / Fold change vs veh, TMEM33 / RFU, WDR75 / Fold change vs veh, WDR75 / RFU, AHCTF1 / Fold change vs veh, AHCTF1 / RFU, TFRC / Fold change vs veh, TFRC / RFU, ZDHHC17 / Fold change vs veh, ZDHHC17 / RFU, NOM1 / Fold change vs veh, NOM1 / RFU, ARL8B / Fold change vs veh, ARL8B / RFU, ZBTB11 / Fold change vs veh, ZBTB11 / RFU, TAMM41 / Fold change vs veh, TAMM41 / RFU, KIAA1704 /// LOC100996395 / Fold change vs veh, KIAA1704 /// LOC100996395 / RFU, ING1 / Fold change vs veh, ING1 / RFU, TRMT61B / Fold change vs veh, TRMT61B / RFU, FUBP3 / Fold change vs veh, FUBP3 / RFU, TP53 / Fold change vs veh, TP53 / RFU, TNKS2 / Fold change vs veh, TNKS2 / RFU, ZFP14 / Fold change vs veh, ZFP14 / RFU, ACTR2 / Fold change vs veh, ACTR2 / RFU, PPP3R1 / Fold change vs veh, PPP3R1 / RFU, PIK3R1 / Fold change vs veh, PIK3R1 / RFU, HNRNPA1 / Fold change vs veh, HNRNPA1 / RFU, RNF170 / Fold change vs veh, RNF170 / RFU, ZNF28 / Fold change vs veh, ZNF28 / RFU, RNGTT / Fold change vs veh, RNGTT / RFU, OGT / Fold change vs veh, OGT / RFU, BRD1 / Fold change vs veh, BRD1 / RFU, MARS / Fold change vs veh, MARS / RFU, ZNF655 / Fold change vs veh, ZNF655 / RFU, FAHD1 / Fold change vs veh, FAHD1 / RFU, BDP1 / Fold change vs veh, BDP1 / RFU, LRRCC1 / Fold change vs veh, LRRCC1 / RFU, ARID1A / Fold change vs veh, ARID1A / RFU, ZNF146 / Fold change vs veh, ZNF146 / RFU, ZNF330 / Fold change vs veh, ZNF330 / RFU, GPN3 / Fold change vs veh, GPN3 / RFU, C9orf123 / Fold change vs veh, C9orf123 / RFU, N4BP2L2 / Fold change vs veh, N4BP2L2 / RFU, ARFIP1 / Fold change vs veh, ARFIP1 / RFU, FAM179B / Fold change vs veh, FAM179B / RFU, BCL10 / Fold change vs veh, BCL10 / RFU, UHRF1BP1L / Fold change vs veh, UHRF1BP1L / RFU, BET1 / Fold change vs veh, BET1 / RFU, CNOT2 / Fold change vs veh, CNOT2 / RFU, ZNF268 / Fold change vs veh, ZNF268 / Fold change vs veh, ZNF507 / RFU, DGCR2 / Fold change vs veh, DGCR2 / RFU, WDSUB1 / Fold change vs veh, WDSUB1 / Fold change vs veh, HSP90B1 /// MIR3652 / RFU, ADSS / Fold change vs veh, ADSS / RFU, GK / Fold change vs veh, GK / RFU, ZNF148 / Fold change vs veh, ZNF148 / RFU, TAF9 / Fold change vs veh, TAF9 / RFU, SLC1A5 / Fold change vs veh, SLC1A5 / RFU, SLMO2 / Fold change vs veh, SLMO2 / RFU, ABCC4 / Fold change vs veh, ABCC4 / RFU, LOC101060439 /// RAP1B / Fold change vs veh, LOC101060439 /// RAP1B / RFU, RFX7 / Fold change vs veh, RFX7 / RFU, GTPBP10 / Fold change vs veh, GTPBP10 / RFU, CNEP1R1 / Fold change vs veh, CNEP1R1 / RFU, BIVM-ERCC5 /// ERCC5 / Fold change vs veh, BIVM-ERCC5 /// ERCC5 / RFU, ILF3 / Fold change vs veh, ILF3 / RFU 11762660_at / Fold change /veh 11762660_at / RFU VCAN (11757783_s_at) / Fold change /veh VCAN (11757783_s_at) / RFU DDX43 (11728927_at) / Fold change /veh DDX43 (11728927_at) / RFU KRT8 (11758188_x_at) / Fold change /veh KRT8 (11758188_x_at) / RFU NKD1 (11759106_at) / Fold change /veh NKD1 (11759106_at) / RFU SRD5A1 (11742802_a_at) / Fold change /veh SRD5A1 (11742802_a_at) / RFU TPSAB1 /// TPSB2 (11721975_s_at) / Fold change /veh TPSAB1 /// TPSB2 (11721975_s_at) / RFU GSTM3 (11746129_a_at) / Fold change /veh GSTM3 (11746129_a_at) / RFU IL23R (11737362_x_at) / Fold change /veh IL23R (11737362_x_at) / RFU TMEM51 (11727254_a_at) / Fold change /veh TMEM51 (11727254_a_at) / RFU PIWIL2 (11732686_x_at) / Fold change /veh PIWIL2 (11732686_x_at) / RFU ORM1 (11744905_x_at) / Fold change /veh ORM1 (11744905_x_at) / RFU CCDC152 (11743942_at) / Fold change /veh CCDC152 (11743942_at) / RFU ECM1 (11717891_a_at) / Fold change /veh ECM1 (11717891_a_at) / RFU IL23R (11748794_a_at) / Fold change /veh IL23R (11748794_a_at) / RFU TNFAIP8L3 (11732012_x_at) / Fold change /veh TNFAIP8L3 (11732012_x_at) / RFU MBOAT4 (11741988_at) / Fold change /veh MBOAT4 (11741988_at) / RFU 11764193_at / Fold change /veh 11764193_at / RFU TMEM53 (11763286_at) / Fold change /veh TMEM53 (11763286_at) / RFU MAGEB2 (11727129_at) / Fold change /veh MAGEB2 (11727129_at) / RFU TMEM200A (11744735_a_at) / Fold change /veh TMEM200A (11744735_a_at) / RFU CCDC152 (11751479_a_at) / Fold change /veh CCDC152 (11751479_a_at) / RFU FAM211A (11726209_a_at) / Fold change /veh FAM211A (11726209_a_at) / RFU RGS16 (11746705_a_at) / Fold change /veh RGS16 (11746705_a_at) / RFU VCAN (11755009_s_at) / Fold change /veh VCAN (11755009_s_at) / RFU RHOB (11743442_s_at) / Fold change /veh RHOB (11743442_s_at) / RFU RGS16 (11720943_a_at) / Fold change /veh RGS16 (11720943_a_at) / RFU RGS16 (11720944_at) / Fold change /veh RGS16 (11720944_at) / RFU, VPS4B / Fold change vs veh, VPS4B / RFU, CREB1 / Fold change vs veh, CREB1 / RFU, DNAJC13 / Fold change vs veh, DNAJC13 / RFU, GNAQ / Fold change vs veh, GNAQ / RFU, CDK5R1 / Fold change vs veh, CDK5R1 / RFU, ZRANB3 / Fold change vs veh, ZRANB3 / RFU, CUL4A / Fold change vs veh, CUL4A / RFU, CCNY / Fold change vs veh, CCNY / RFU, UFL1 / Fold change vs veh, UFL1 / RFU, COG3 / Fold change vs veh, COG3 / RFU, DIAPH2 / Fold change vs veh, DIAPH2 / RFU, SKA2 / Fold change vs veh, SKA2 / RFU, AFF3 / Fold change vs veh, AFF3 / RFU, LMF1 / Fold change vs veh, LMF1 / RFU, IPO11 / Fold change vs veh, IPO11 / RFU, DFFB / Fold change vs veh, DFFB / RFU, FOXP1 / Fold change vs veh, FOXP1 / RFU, CARD8 / Fold change vs veh, CARD8 / RFU, STRN3 / Fold change vs veh, STRN3 / RFU, ADK / Fold change vs veh, ADK / RFU, RASSF2 / Fold change vs veh, RASSF2 / RFU, WIPF1 / Fold change vs veh, WIPF1 / RFU, LARP1B / Fold change vs veh, LARP1B / RFU, RASA1 / Fold change vs veh, RASA1 / RFU, RB1 / Fold change vs veh, RB1 / RFU, PPFIA1 / Fold change vs veh, PPFIA1 / RFU, MAT2A / Fold change vs veh, MAT2A / RFU, CCT5 / Fold change vs veh, CCT5 / RFU, WDR92 / Fold change vs veh, WDR92 / RFU, CUX1 / Fold change vs veh, CUX1 / RFU, TTC7A / Fold change vs veh, TTC7A / RFU, TMEM135 / Fold change vs veh, TMEM135 / RFU, DEPTOR / Fold change vs veh, DEPTOR / RFU, CPM / Fold change vs veh, CPM / RFU, DNAJB6 / Fold change vs veh, DNAJB6 / RFU, CACNA2D3 / Fold change vs veh, CACNA2D3 / RFU, DTX4 / Fold change vs veh, DTX4 / RFU, TFCP2 / Fold change vs veh, TFCP2 / RFU, GMCL1 /// GMCL1P1 / Fold change vs veh, GMCL1 /// GMCL1P1 / RFU, AEBP2 / Fold change vs veh, AEBP2 / RFU, SNHG1 /// SNORD22 /// SNORD25 /// SNORD26 /// SNORD27 /// SNORD28 /// SNORD29 /// SNORD31 / Fold change vs veh, SNHG1 /// SNORD22 /// SNORD25 /// SNORD26 /// SNORD27 /// SNORD28 /// SNORD29 /// SNORD31 / Fold change (Aza/veh), C12orf56 (ProbeSet 11735607_a_at) / Fold change (ACY-1035/veh), C12orf56 (ProbeSet 11735607_a_at) / Fold change (Aza/veh), FGFR1OP (ProbeSet 11751329_s_at) / Fold change (ACY-1035/veh), FGFR1OP (ProbeSet 11751329_s_at) / Fold change (Aza/veh), VPS36 (ProbeSet 11739960_a_at) / Fold change (ACY-1035/veh), VPS36 (ProbeSet 11739960_a_at) / RFU SYPL1 (11715823_x_at) / Fold change /veh SYPL1 (11715823_x_at) / RFU IGFBP7 (11715501_s_at) / Fold change /veh IGFBP7 (11715501_s_at) / RFU REEP3 (11722064_at) / Fold change /veh REEP3 (11722064_at) / RFU IGLL1 (11728026_x_at) / Fold change /veh IGLL1 (11728026_x_at): dose or concentration left out as unconfirmed
# Settings: ProbeSet 11716865_a_at; LIST B
smiles,measurement,value
Nc1ncn([C@@H]2O[C@H](CO)[C@@H](O)[C@H]2O)c(=O)n1 [azacitidine],"RFU, SLC1A5",258.33 RFU
